Results taken from ChEMBL document CHEMBL1122030, “2-Arylpyrazolo[4,3-c]quinolin-3-ones: novel agonist, partial agonist, and antagonist of benzodiazepines” (J Med Chem, 1982).
Values joined by “and” are separate entries in the source; they are usually repeats but may differ in a detail not shown here. Identical values can stand only once.

Tests used:
Rattus norvegicus [1] = experiment: Antianxiety effect in cook-davidson behavior test at 10 mg/kg of compound administered perorally in rats expressed as mean percent change; type: functional; conditions: route oral
Rattus norvegicus [2] = species on record: Rattus norvegicus; experiment: Antianxiety effect was assessed by the cook-davidson behavior test; type: functional
Rattus norvegicus [3] = experiment: Antianxiety effect was assessed by the cook-davidson behavior test at 1 mg/kg of compound administered perorally.; type: functional; conditions: route oral
Rattus norvegicus [4] = experiment: (§1) Effect on anti-convulsive 5.4 mg/kg Diazepam peroral dose in rats given 24 mg/kg iv metrazol, number of rats protected (of 6); type: functional
Rattus norvegicus [5] = experiment: Antianxiety effect in cook-davidson behavior test at 3 mg/kg of compound administered perorally in rats expressed as mean percent change; type: functional; conditions: route oral
Rattus norvegicus [6] = experiment: Antianxiety effect in cook-davidson behavior test at 1 mg/kg of compound administered perorally in rats expressed as mean percent change; type: functional; conditions: route oral
Rattus norvegicus [7] = experiment: Antianxiety effect was assessed by the cook-davidson behavior test at 3 mg/kg of compound administered perorally.; type: functional; conditions: route oral
Rattus norvegicus [8] = experiment: Antianxiety effect was assessed by the cook-davidson behavior test at 10 mg/kg of compound administered perorally.; type: functional; conditions: route oral
[9] = molecular target: GABA-A receptor; anion channel; experiment: In vitro inhibition of binding to GABA-A central benzodiazepine-receptor of rat brain
Rattus norvegicus [10] = experiment: Anticonvulsant efficacy when administered perorally was determined in rat metrazole anticonvulsant test; Calculated from responses at 1,3 and 10 mg/kg doses; type: functional; conditions: route oral
Rattus norvegicus [11] = experiment: as §1; type: functional; remark: listed apart in the source
Rattus norvegicus [12] = experiment: as §1; type: functional; remark: listed apart in the source
Rattus norvegicus [13] = experiment: as §1; type: functional; remark: listed apart in the source
[14] = molecular target: T1, GABA-A receptor; anion channel (Rattus norvegicus) (UniProt O09028+P15431+P18506+P18508+P19969+P20236+P23574+P23576+P28471+P28473+P30191+P62813+P63079+P63138+Q91ZM7+Q9ES14)
Description: (§2) In vivo inhibition of binding to GABA-A central benzodiazepine-receptor after po administration in rats

Rattus norvegicus [15] = experiment: Antianxiety effect in cook-davidson behavior test at 30 mg/kg of compound administered perorally in rats expressed as mean percent change; type: functional; conditions: route oral
[16] = molecular target: T1, GABA-A receptor; anion channel (Rattus norvegicus); remark: listed apart in the source
Description: In vivo inhibition of binding to GABA-A central benzodiazepine-receptor after ip administration in rats

Rattus norvegicus [17] = experiment: Anticonvulsant efficacy when administered perorally was determined in rat metrazole anticonvulsant test; type: functional; conditions: po
[18] = molecular target: T1, GABA-A receptor; anion channel (Rattus norvegicus); remark: listed apart in the source
Description: as §2

Rattus norvegicus [19] = experiment: Antianxiety effect was assessed by the cook-davidson behavior test at 30 mg/kg of compound administered perorally.; type: functional; conditions: route oral

SMILES	VI30 (Rattus norvegicus [1])	FR10 control (Rattus norvegicus [2])	FR10 treated (Rattus norvegicus [3])	No. of animals protected (Rattus norvegicus [4])	VI30 (Rattus norvegicus [5])	VI30 (Rattus norvegicus [6])	FR10 treated (Rattus norvegicus [7])	FR10 treated (Rattus norvegicus [8])	IC50 [9]	ED50 (Rattus norvegicus [10])	No. of animals protected (Rattus norvegicus [11])	No. of animals protected (Rattus norvegicus [12])	No. of animals protected (Rattus norvegicus [13])	ID50 [14]	VI30 (Rattus norvegicus [15])	ID50 [16]	ED50 (Rattus norvegicus [17])	ID50 [18]	FR10 treated (Rattus norvegicus [19])
COc1ccc(-n2nc3c4ccccc4[nH]cc-3c2=O)cc1	5.7%	61 and 65 and 50	98	4	7.8%	6.5%	124	100	0.1 nM	2.81 mg/kg									
O=C1C2C=Nc3ccccc3C2=NN1c1ccccc1 (stereo not given) [CGS-8216]			87	5		0.1%			0.4 nM		0	1	0	7.06 mg/kg					
O=C1C2C=Nc3ccccc3C2=NN1c1ccc(Cl)cc1 (stereo not given) [CGS-9896]	18.2%	67 and 112 and 81 and 73	217		10.2%	0.1%	234	230	0.6 nM						7.5%	3.3 mg/kg	0.9 mg/kg		
CN1C(=O)CN=C(c2ccccc2)c2cc(Cl)ccc21 [DIAZEPAM]	3.6%	82 and 85 and 63 and 76	97		6.1%	5.9%	131	206							-23.8%		4 mg/kg	5 mg/kg	240
